Experimental data as given in US11603359B2, “Benzothiadiazepine compounds and their use as bile acid modulators” (Albireo AB, priority 2019, dated 2023).

Key:
[1] = target: T1, human IBAT (Homo sapiens, UniProt Q12908); assay: IBAT (h/m) assay, human IBAT-overexpressing cells, 3H-taurocholic acid uptake; assay type: cell-based; conditions: 0.25 μM 3H-taurocholic acid + 5 μM cold taurocholic acid, 20 minutes, read-out: hIBAT IC50
T1 construct: expressed in transfected cells; Puromycin-selected IBAT-overexpressing cells
T1 sequence (Q12908 1-348): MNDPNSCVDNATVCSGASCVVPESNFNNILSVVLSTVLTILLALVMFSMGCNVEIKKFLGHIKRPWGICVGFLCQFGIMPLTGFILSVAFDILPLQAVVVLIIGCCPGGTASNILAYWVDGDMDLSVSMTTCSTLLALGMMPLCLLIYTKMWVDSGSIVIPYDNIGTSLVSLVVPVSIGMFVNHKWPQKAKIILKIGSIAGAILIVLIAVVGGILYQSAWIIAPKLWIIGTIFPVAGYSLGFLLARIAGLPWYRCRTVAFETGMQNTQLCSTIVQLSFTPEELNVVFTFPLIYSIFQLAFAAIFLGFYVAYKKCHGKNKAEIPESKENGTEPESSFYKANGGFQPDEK
Experimental: 10,000 cells (Human or Mouse IBAT-overexpressing cells) were seeded in 96-wells plate (Corning CLS3809) in 200 μL MEM-alpha medium (Gibco 12571-063) supplemented with 10% FBS (Gibco 10438026) containing Puromycin (Gibco A1113803) (10 μg/mL) and incubated at 37° C. in 5% CO2 for 48 hours. After incubation, media was decanted from the wells and cells were washed two times with 300 μL of basal MEM-alpha medium (FBS-free). After decanting basal MEM-alpha medium each time, plates were tapped against paper towel to ensure maximum removal of residual media. Test inhibitor dilutions (highest test concentration being 10 μM, 3-fold serial dilution, 10 points) prepared in DMSO (Sigma D2650) were added in incubation mix (maintaining 0.2% final DMSO concentration) containing 0.25 μM 3H-taurocholic acid (ARC ART-1368) and 5 μM of cold taurocholic acid (Sigma T4009). 50 μL of incubation mix containing test inhibitors was then added to the wells (in duplicate) and the plates were incubated for 20 minutes in a CO2 incubator at 37° C. After incubation, the reaction was stopped by keeping the plates on ice water mix for 2-3 minutes and then the incubation mix was aspirated completely from the wells. The wells were washed two times with 250 μL of chilled unlabelled 1 mM taurocholic acid dissolved in HEPES (Gibco 15630080)-buffered (10 mM) HBSS (Gibco 14175079) (pH 7.4). The plates were tapped against a paper towel after every wash to ensure maximum removal of blocking buffer.
(§1) 100 μL of MicroScint-20 (PerkinElmer 6013621) was added to the wells and kept overnight at room temperature before reading the plates in TopCount NXT™ Microplate Scintillation and Luminescence Counter from PerkinElmer under 3H Test protocol (set at 120 seconds reading time per well).
(§2) All test compounds were provided in powder form at room temperature. 10 mM DMSO stocks of the test compounds were prepared, aliquoted and stored at −20° C. From the 10 mM DMSO stock of the compounds, a 3-fold serial dilution in DMSO was prepared to get a total of 10 dilutions of the test compounds. 0.5 μL of this dilution in DMSO was added to 250 μL of FBS-free basal media containing 3H-taurocholic acid and cold taurocholic acid to prepare the incubation mixture.

[2] = target: T2, human LBAT (Homo sapiens, UniProt Q14973); assay: LBAT (h/m) assay, human LBAT-overexpressing cells, 3H-taurocholic acid uptake; assay type: cell-based; conditions: 0.3 μM 3H-taurocholic acid + 7.5 μM cold taurocholic acid, 20 minutes, read-out: hLBAT IC50
T2 construct: expressed in transfected cells; Geneticin-selected LBAT-overexpressing cells
T2 sequence (Q14973 1-349): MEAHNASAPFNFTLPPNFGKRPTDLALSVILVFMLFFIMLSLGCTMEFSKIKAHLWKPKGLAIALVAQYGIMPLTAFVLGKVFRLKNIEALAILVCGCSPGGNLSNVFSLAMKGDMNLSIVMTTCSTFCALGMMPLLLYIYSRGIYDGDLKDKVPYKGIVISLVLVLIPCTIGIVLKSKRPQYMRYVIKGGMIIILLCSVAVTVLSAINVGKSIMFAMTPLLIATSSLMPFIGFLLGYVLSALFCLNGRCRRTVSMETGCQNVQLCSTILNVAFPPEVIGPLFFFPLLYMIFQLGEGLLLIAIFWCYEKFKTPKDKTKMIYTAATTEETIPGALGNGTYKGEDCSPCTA
Experimental: 20,000 cells (Human or Mouse LBAT-overexpressing cells) were seeded in 96-wells plate (Corning CLS3809) in 100 μL MEM-alpha medium (Gibco 12571-063) supplemented with 10% FBS (Gibco 10438026) containing Geneticin (Gibco 10131-027) (1 mg/mL) and incubated at 37° C. in 5% CO2 for 24 hours. After incubation, media was decanted from the wells and cells were washed two times with 300 μL of basal MEM-alpha medium (FBS-free). After decanting basal MEM-alpha medium each time, plates were tapped against paper towel to ensure maximum removal of residual media.
For human LBAT, incubation mix was prepared by adding test inhibitor dilutions (3-fold serial dilution in DMSO (Sigma D2650), 10 points) in MEM-alpha (without FBS) containing 0.3 μM 3H-taurocholic acid (ARC ART-1368) and 7.5 μM cold taurocholic acid (Sigma T4009) (maintaining 0.2% final DMSO concentration). For mouse LBAT, incubation mix was prepared by adding test inhibitor dilutions (3-fold serial dilution in DMSO, 10 points) in MEM-alpha (without FBS) containing 0.3 μM 3H-taurocholic acid and 25 μM cold taurocholic acid maintaining 0.2% final DMSO concentration).
50 μL of incubation mix containing test inhibitors was then added to the wells (in duplicate) and the plates were incubated for 20 minutes in a CO2 incubator at 37° C. After incubation, the reaction was stopped by keeping the plates on ice water mix for 2-3 minutes and then the incubation mix was aspirated completely from the wells. The wells were washed two times with 250 μL of chilled unlabelled 1 mM taurocholic acid dissolved in HEPES (Gibco 15630080)-buffered (10 mM) HBSS (Gibco 14175079) (pH 7.4). The plates were tapped against a paper towel after every wash to ensure maximum removal of blocking buffer.
as §1, with “well, with normal plate orientation).” for “well).”
as §2

SMILES | IC50 [1] [nM] | IC50 [2] [nM]
CCCCC1(CC)CN(c2ccccc2)c2cc(SC)c(OCCC(=O)O)cc2S(=O)(=O)N1 (racemic) [Example 2, 3-((3-butyl-3-ethyl-7-(methylthio)-1,1-dioxido-5-phenyl-2,3,4,5-tetrahydro-1,2,5-benzothiadiazepin-8-yl)oxy)propanoic acid] | 4 | 736
CCCCC1(CC)CN(c2ccccc2)c2cc(SC)c(OCCC(=O)O)cc2S(=O)(=O)N1 (single isomer, unassigned) [Example 3, 3-((3-butyl-3-ethyl-7-(methylthio)-1,1-dioxido-5-phenyl-2,3,4,5-tetrahydro-1,2,5-benzothiadiazepin-8-yl)oxy)propanoic acid] | 23 | 283
CCCCC1(CCCC)CN(c2ccccc2)c2cc(SC)c(OCC(O)C(=O)O)cc2S(=O)(=O)N1 (single isomer, unassigned) [Example 6, 3-((3,3-dibutyl-7-(methylthio)-1,1-dioxido-5-phenyl-2,3,4,5-tetrahydro-1,2,5-benzothiadiazepin-8-yl)oxy)-2-hydroxypropanoic acid] | 14 | 3660
CCCCC1(CC)CN(c2ccccc2)c2cc(N(C)C)c(OCCC(=O)O)cc2S(=O)(=O)N1 (single isomer, unassigned) [Example 13, 3-((3-butyl-7-(dimethylamino)-3-ethyl-1,1-dioxido-5-phenyl-2,3,4,5-tetrahydro-1,2,5-benzothiadiazepin-8-yl)oxy)propanoic acid] | 15 | 2220
CCCCC1(CC)CN(c2ccccc2)c2cc(SC)c(OCC(N)C(=O)O)cc2S(=O)(=O)N1 (stereo not shown) [Example 14, O-(3-butyl-3-ethyl-7-(methylthio)-1,1-dioxido-5-phenyl-2,3,4,5-tetrahydro-1,2,5-benzothiadiazepin-8-yl)serine] | 6 | 342
